Results reported in patent US20240158446A1, “CYCLIC COMPOUND HAVING SELECTIVE INHIBITORY ACTION ON KRAS OVER HRAS AND NRAS” (CHUGAI SEIYAKU KABUSHIKI KAISHA, priority 2021, published 2024).
Where two headings read alike, the source gives them in different places. Where a SMILES comes first, the peptide text is derived from it. Bridges are numbered along the chain shown (N, C = ends). [ ]: non-standard residue; d: D form. The star is where a group is joined. hPhe(3,5-F2-4-CF3) = N[C@@H](CCc1cc(F)c(C(F)(F)F)c(F)c1)C(=O)O; NPrPhe(4-CF3) = CCCN[C@@H](Cc1ccc(C(F)(F)F)cc1)C(=O)O; NMeGly(cPent) = CN[C@H](C(=O)O)C1CCCC1; NMeD = CN[C@@H](CC(=O)O)C(=O)O; NMeL = CN[C@@H](CC(C)C)C(=O)O; αMeV = CC(C)[C@](C)(N)C(=O)O; Morpholide = C1CN(*)CCO1; Sar = CNCC(=O)O

Legend:
[1] = target: GDP-bound KRAS wild-type protein (Homo sapiens, UniProt P01116); experiment: Binding to KRAS by surface plasmon resonance (SPR), Single Cycle Kinetics; settings: GDP-bound KRAS wild-type protein, read-out: KRAS KD
[2] = target: GDP-bound NRAS wild-type protein (Homo sapiens, UniProt P01111); experiment: Binding to NRAS by surface plasmon resonance (SPR), Single Cycle Kinetics; settings: for NRAS/KRAS (ratio of KD value with respect to GDP-bound NRAS wild-type protein to KD value with respect to KRAS): SPR KD ratio NRAS/KRAS, class symbols
[3] = target: GDP-bound HRAS wild-type protein (Homo sapiens, UniProt P01112); experiment: Binding to HRAS by surface plasmon resonance (SPR), Single Cycle Kinetics; settings: for HRAS/KRAS (ratio of KD value with respect to GDP-bound HRAS wild-type protein to KD value with respect to KRAS): SPR KD ratio HRAS/KRAS, class symbols
[4] = tested on: human lung cancer strain NCI-H441;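 also: cell proliferation inhibition after four days measured by CellTiter-Glo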
[5] = SPR Single Cycle Kinetics, 1:1 binding model
[6] = SPR, GDP-bound NRAS wild-type protein vs GDP-bound KRAS wild-type protein
[7] = SPR, GDP-bound HRAS wild-type protein vs GDP-bound KRAS wild-type protein
[8] = SPR, Single Cycle Kinetics, 1:1 binding model
[9] = SPR, GDP-bound NRAS wild-type protein vs GDP-bound KRAS wild-type protein, KD ratio class
[10] = SPR, GDP-bound HRAS wild-type protein vs GDP-bound KRAS wild-type protein, KD ratio class

Sequence of GDP-bound NRAS wild-type protein (P01111 whole entry): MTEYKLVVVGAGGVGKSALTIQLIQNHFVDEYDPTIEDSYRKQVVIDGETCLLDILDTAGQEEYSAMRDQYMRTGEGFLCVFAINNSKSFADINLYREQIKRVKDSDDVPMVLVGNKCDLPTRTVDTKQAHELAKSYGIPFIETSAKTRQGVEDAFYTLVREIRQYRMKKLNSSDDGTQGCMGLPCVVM
Sequence of GDP-bound KRAS wild-type protein (P01116 whole entry): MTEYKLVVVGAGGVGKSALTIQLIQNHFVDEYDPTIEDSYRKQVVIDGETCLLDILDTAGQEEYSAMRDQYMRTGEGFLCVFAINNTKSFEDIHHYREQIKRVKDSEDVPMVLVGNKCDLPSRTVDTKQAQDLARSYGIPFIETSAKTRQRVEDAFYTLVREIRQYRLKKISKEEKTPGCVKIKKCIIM
Sequence of GDP-bound HRAS wild-type protein (P01112 whole entry): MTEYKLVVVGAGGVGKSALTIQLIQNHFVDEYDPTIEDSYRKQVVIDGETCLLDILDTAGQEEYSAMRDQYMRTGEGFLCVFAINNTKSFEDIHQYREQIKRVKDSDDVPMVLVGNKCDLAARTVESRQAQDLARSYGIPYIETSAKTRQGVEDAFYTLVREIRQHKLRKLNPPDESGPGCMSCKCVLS

Row | Kd [1, 5] [nM] | IC50 [4] [nM] | Kd [1, 8] [nM] | SMILES | NRAS/KRAS (ratio of KD value with respect to GDP-bound NRAS wild-type protein to KD value with respect to KRAS) [2] | HRAS/KRAS (ratio of KD value with respect to GDP-bound HRAS wild-type protein to KD value with respect to KRAS) [3] | NRAS/KRAS (ratio of KD value for NRAS to KD value for KRAS) [2, 9] | HRAS/KRAS (ratio of KD value for HRAS to KD value for KRAS) [3, 10] | other results
1 | 5.5 | 120 | – | CCC[C@H]1C(=O)N[C@@H]([C@@H](C)CC)C(=O)N(C2CC2)CC(=O)N(C)[C@H]2C/C=C\CCN(C2=O)[C@@H](Cc2ccc(C(F)(F)F)cc2)C(=O)N(C)CC(=O)N[C@@H](CCc2cc(F)c(C(F)(F)F)c(F)c2)C(=O)N2C[C@H](OCC)C[C@H]2C(=O)NC2(CC(C)(C)C2)C(=O)N(C)[C@@H](CC2CCC2)C(=O)N(C)[C@H](C(=O)N(C)C)CC(=O)N1C [PP2768] | A (a compound having 10 or more and less than 20 is denoted as A) | A (a compound having 10 or more and less than 20 is denoted as A) | – | – | –
2 | 0.87 | 69.5 | – | CCCN1C(=O)CN(C)C(=O)CN(C)C(=O)[C@H]([C@@H](C)CC)NC(=O)[C@H](CC(C)C)N(C)C(=O)C[C@@H](C(=O)N2CCOCC2)N(C)C(=O)[C@H](C2CCCC2)N(C)C(=O)[C@](C)(C(C)C)NC(=O)[C@@H]2CCCN2C(=O)[C@H](CCc2cc(F)c(C(F)(F)F)c(F)c2)NC(=O)CN(C)C(=O)[C@@H]1Cc1ccc(C(F)(F)F)cc1 [PP0756] ([NMeL]I[Sar][Sar][NPrPhe(4-CF3)][Sar][hPhe(3,5-F2-4-CF3)]P[αMeV][NMeGly(cPent)][NMeD]-Morpholide; lactam N-11) | – | – | – | – | NRAS/KRAS (ratio of KD value with respect to NRAS to KD value with respect to KRAS) [2, 6]: B (a compound having 3 or more and less than 10 is denoted as B); HRAS/KRAS (ratio of KD value with respect to HRAS to KD value with respect to KRAS) [3, 7]: B (a compound having 3 or more and less than 10 is denoted as B)
3 | – | 30.5 | 0.13 | CCO[C@@H]1C[C@H]2C(=O)NC3(CCC3)C(=O)N(C)[C@@H](C3CCCC3)C(=O)N(C)[C@H](C(=O)N(C)C)CC(=O)N(C)[C@@H](CC)C(=O)N[C@@H]([C@@H](C)CC)C(=O)N(C)CC(=O)N(C)[C@H]3C/C=C\CCN(C3=O)[C@@H](CC3CCC(F)(F)CC3)C(=O)N(C)CC(=O)N[C@@H](CCc3cc(F)c(C(F)(F)F)c(F)c3)C(=O)N2C1 [PP1452, (2S,8S,12R,14S,20S,23S,27S,30S,36S,38Z)-20-cyclopentyl-2-[(4,4-difluorocyclohexyl)methyl]-8-[2-[3,5-difluoro-4-(trifluoromethyl)phenyl]ethyl]-12-ethoxy-27-ethyl-N,N,4,19,22,26,32,35-octamethyl-30-[(1S)-1-methylpropyl]-3,6,9,15,18,21,25,28,31,34,42-undecaoxo-spiro[1,4,7,10,16,19,22,26,29,32,35-undecazatricyclo[34.5.1.0^10,14]dotetracont-38-ene-17,1′-cyclobutane]-23-carboxamide] | – | – | A (a compound having 10 or more and less than 20 is denoted as A) | A (a compound having 10 or more and less than 20 is denoted as A) | –
4 | 0.5 | 56.9 | – | CCC(CC)[C@H]1C(=O)N(C)[C@H](C(=O)N(C)C)CC(=O)N(C)[C@@H](COC)C(=O)N[C@@H]([C@@H](C)CC)C(=O)N(C2CC2)CC(=O)N(C)[C@H]2C/C=C\CCN(C2=O)[C@@H](Cc2ccc(C(F)F)cc2)C(=O)N(C)CC(=O)N[C@@H](CCc2cc(F)c(C(F)(F)F)c(F)c2)C(=O)N2C[C@H](OC3CCC3)C[C@H]2C(=O)NC2(CC(C)(C)C2)C(=O)N1C [PP2631] | AA (a compound having 20 or more is denoted as AA) | A (a compound having 10 or more and less than 20 is denoted as A) | – | – | –
5 | – | 51.2 | 0.3 | CCCCCC[C@H]1C(=O)N[C@@H]([C@@H](C)CC)C(=O)N(C)CC(=O)N(C)[C@H]2C/C=C\CCN(C2=O)[C@@H](Cc2ccc(C(F)(F)F)cc2)C(=O)N(C)CC(=O)N[C@@H](CCc2ccc(Cl)c(Cl)c2)C(=O)N2C[C@H](OCC)C[C@H]2C(=O)NC2(CCC2)C(=O)N(C)[C@@H](C2CCCC2)C(=O)N(C)[C@H](C(=O)N(C)C)CC(=O)N1C [PP1252] | – | – | AA (a compound having 20 or more is denoted as AA) | A (a compound having 10 or more and less than 20 is denoted as A) | –
6 | – | 29 | 0.091 | CCO[C@@H]1C[C@H]2C(=O)NC3(CCC3)C(=O)N(C)[C@@H](C3CCCC3)C(=O)N(C)[C@H](C(=O)N(C)C)CC(=O)N(C)[C@@H](CC)C(=O)N[C@@H](C3CCC3)C(=O)N(C)CC(=O)N(C)[C@H]3C/C=C\CCN(C3=O)[C@@H](Cc3ccc(C(F)(F)F)cc3)C(=O)N(C)CC(=O)N[C@@H](CCc3cc(F)c(C(F)(F)F)c(F)c3)C(=O)N2C1 [PP1269, (2S,8S,12R,14S,20S,23S,27S,30S,36S,38Z)-30-cyclobutyl-20-cyclopentyl-8-[2-[3,5-difluoro-4-(trifluoromethyl)phenyl]ethyl]-12-ethoxy-27-ethyl-N,N,4,19,22,26,32,35-octamethyl-3,6,9,15,18,21,25,28,31,34,42-undecaoxo-2-[[4-(trifluoromethyl)phenyl]methyl]spiro[1,4,7,10,16,19,22,26,29,32,35-undecazatricyclo[34.5.1.0^10,14]dotetracont-38-ene-17,1′-cyclobutane]-23-carboxamide] | – | – | A (a compound having 10 or more and less than 20 is denoted as A) | B (a compound having 3 or more and less than 10 is denoted as B) | –

The next lines start with the compound.

Row | SMILES | Kd [1, 5] [nM] | IC50 [4] [nM] | Kd [1, 8] [nM] | NRAS/KRAS (ratio of KD value with respect to GDP-bound NRAS wild-type protein to KD value with respect to KRAS) [2] | HRAS/KRAS (ratio of KD value with respect to GDP-bound HRAS wild-type protein to KD value with respect to KRAS) [3] | NRAS/KRAS (ratio of KD value for NRAS to KD value for KRAS) [2, 9] | HRAS/KRAS (ratio of KD value for HRAS to KD value for KRAS) [3, 10] | other results
7 | CCC(CC)[C@H]1C(=O)N(C)[C@H](C(=O)N(C)C)CC(=O)N(C)[C@@H](COC)C(=O)N[C@@H]([C@@H](C)CC)C(=O)N(C2CC2)CC(=O)N(C)[C@H]2C/C=C\CCN(C2=O)[C@@H](Cc2ccc(C)cc2)C(=O)N(C)CC(=O)N[C@@H](CCc2cc(F)c(C(F)(F)F)c(F)c2)C(=O)N2C[C@H](OC(C)C)C[C@H]2C(=O)NC2(CC(C)(C)C2)C(=O)N1C [PP2572] | 1.2 | 82.7 | – | A (a compound having 10 or more and less than 20 is denoted as A) | A (a compound having 10 or more and less than 20 is denoted as A) | – | – | –
8 | CCO[C@@H]1C[C@H]2C(=O)NC3(CCC3)C(=O)N(C)[C@@H](C3CCCC3)C(=O)N(C)[C@H](C(=O)N(C)C)CC(=O)N(C)[C@@H](CC3CCC3)C(=O)N[C@@H]([C@@H](C)CC)C(=O)N(C)CC(=O)N(C)[C@H]3C/C=C\CCN(C3=O)[C@@H](CC3CCCCC3)C(=O)N(C)CC(=O)N[C@@H](CCc3cc(F)c(C(F)(F)F)c(F)c3)C(=O)N2C1 [PP1469] | – | 22.2 | 0.18 | – | – | A (a compound having 10 or more and less than 20 is denoted as A) | A (a compound having 10 or more and less than 20 is denoted as A) | –
9 | CC[C@H](C)[C@@H]1NC(=O)[C@H](COC)N(C)C(=O)C[C@@H](C(=O)N(CC)CC)N(C)C(=O)[C@H](C2CCCC2)N(C)C(=O)C2(CC(C)(C)C2)NC(=O)[C@@H]2C[C@H](C)CN2C(=O)[C@H](CCc2ccc(C(F)(F)F)c(OC)c2)NC(=O)CN(C)C(=O)[C@H](Cc2ccc(C)cc2)N2CC/C=C\C[C@@H](C2=O)N(C)C(=O)CN(C)C1=O [PP2441] | – | 22.9 | – | – | – | – | – | Kd ([1]; SPR, Single Cycle Kinetics): 0.29 nM; NRAS/KRAS (ratio of KD value for NRAS to KD value for KRAS) [2, 6]: AA (a compound having 20 or more is denoted as AA); HRAS/KRAS (ratio of KD value for HRAS to KD value for KRAS) [3, 7]: A (a compound having 10 or more and less than 20 is denoted as A)
10 | CCCOC[C@H]1C(=O)N[C@@H]([C@@H](C)CC)C(=O)N(C)CC(=O)N(C)[C@H]2C/C=C\CCN(C2=O)[C@@H](Cc2ccc(C)cc2)C(=O)N(C)CC(=O)N[C@@H](CCc2ccc(C(F)(F)F)c(OC)c2)C(=O)N2C[C@H](OCC)C[C@H]2C(=O)NC2(CC(C)(C)C2)C(=O)N(C)[C@@H](C2CCCC2)C(=O)N(C)[C@H](C(=O)N(C)CC)CC(=O)N1C [PP2463] | – | 6.5 | – | – | – | – | – | Kd ([1]; SPR, Single Cycle Kinetics): 0.11 nM; NRAS/KRAS (ratio of KD value for NRAS to KD value for KRAS) [2, 6]: A (a compound having 10 or more and less than 20 is denoted as A); HRAS/KRAS (ratio of KD value for HRAS to KD value for KRAS) [3, 7]: A (a compound having 10 or more and less than 20 is denoted as A)
11 | CCO[C@@H]1C[C@H]2C(=O)NC3(CC(C)(C)C3)C(=O)N(C)[C@@H](C(CC)CC)C(=O)N(C)[C@H](C(=O)N(C)C)CC(=O)N(C)[C@@H](COC)C(=O)N[C@@H]([C@@H](C)CC)C(=O)N(C3CC3)CC(=O)N(C)[C@H]3C/C=C\CCN(C3=O)[C@@H](CC3CCC(F)(F)CC3)C(=O)N(C)CC(=O)N[C@@H](CCc3ccc(Cl)c(Cl)c3)C(=O)N2C1 [PP2569] | 2.8 | 185 | – | AA (a compound having 20 or more is denoted as AA) | A (a compound having 10 or more and less than 20 is denoted as A) | – | – | –
